The values below come from EP4470536A1, “COMPOUND FOR USE IN TREATING FIBRODYSPLASIA OSSIFICANS PROGRESSIVA (FOP)” (Queen's University At Kingston, priority 2023, dated 2024).

The target in data set [1] is T1, CYP26B1 (Homo sapiens, UniProt Q9NR63).
T1 sequence (Q9NR63 1-512): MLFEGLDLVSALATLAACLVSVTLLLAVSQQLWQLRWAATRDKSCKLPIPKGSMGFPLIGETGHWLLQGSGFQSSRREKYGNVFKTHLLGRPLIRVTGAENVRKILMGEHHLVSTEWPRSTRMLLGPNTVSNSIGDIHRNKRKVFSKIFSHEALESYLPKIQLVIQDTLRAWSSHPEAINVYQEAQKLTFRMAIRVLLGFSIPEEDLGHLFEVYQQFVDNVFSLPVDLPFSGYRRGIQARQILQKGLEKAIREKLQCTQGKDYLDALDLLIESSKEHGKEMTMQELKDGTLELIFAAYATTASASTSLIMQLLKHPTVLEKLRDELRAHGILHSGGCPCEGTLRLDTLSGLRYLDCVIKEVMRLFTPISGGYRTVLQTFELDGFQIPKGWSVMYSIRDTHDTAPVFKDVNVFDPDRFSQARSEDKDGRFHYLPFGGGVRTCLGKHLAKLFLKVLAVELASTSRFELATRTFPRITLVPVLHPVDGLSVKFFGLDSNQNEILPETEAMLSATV
Kind of data set: HeLa cell-based inhibitor assay (HeLa-CYP26B1), inhibition of all trans-RA metabolism. The following applies: CYP26B1 cells; [3H]-RA, 3 hours at 37 °C; Figure 1. The protocol: CYP26A1 or CYP26B1 cDNA stably transfected HeLa cells were maintained in Minimum Essential Medium (MEM) containing 10% fetal bovine serum (FBS), 1X antibiotic/antimycotic cocktail, and […] hygromycin. Exponentially growing cells were harvested by incubation in trypsin. Cells were then collected and re-plated in 48-well culture plates at 1.5×10^5 (CYP26A1) or 1.5×10^4 (CYP26B1) cells in 0.2 mL of culture medium containing 0.04µCi [^3H]-RA (retinoic acid) in the presence or absence of increasing concentrations of a test compound. The test compound was diluted in dimethyl sulfoxide (DMSO) and then added in duplicate to wells to 0.01 nM, 0.1 nM, 1 nM, 10 nM, 100 nM, 1 µM, and 10 µM final concentrations. Cells were incubated for 3 hours at 37 °C. Retinoids were then extracted using the procedure of Bligh, et al., (1959), Canadian Journal of Biochemistry 37, 911-917, which was modified by using dichloromethane instead of chloroform. Each sample's water-soluble radioactivity level was quantified using a β-scintillation counter (using Ecolume scintillation fluid, available from MP Biomedicals of Solon, OH, USA). IC50 values represented the concentration of inhibitor required to inhibit all trans-RA metabolism by 50%, and were derived from log transformed data.

Data set [2] concerns the target T1, CYP26B1. Kind of data set: U2OS cell-based inhibitor assay (endogenous CYP26B1). The conditions noted are these: U2OS cells pre-treated with 1 µM RA for 24 hours; Figure 4. More on the design: This assay used a human cell type endogenously expressing the CYP26B1 enzyme; endogenous in cells; host or cells: U2OS, pre-treated with 1 µM RA for 24 hours. On the procedure:
This assay used a human cell type endogenously expressing the CYP26B1 enzyme to test the ability of a compound to block RA metabolism. U2OS cells were grown in McCoy's 5A medium containing 10% fetal bovine serum (FBS) and 1X antibiotic/antimycotic cocktail. Cells grown in a T-175 culture flask at […] were treated with 1 µM RA for 24 hours to induce the expression of the CYP26B1 gene prior to the assay. Following this treatment period, cells were collected by trypsinization, washed twice in PBS, and resuspended in 7 ml of fresh culture medium. These cells were then re-plated in 48-well plates, and the assay was carried out as described for the HeLa-cell based assay.

For a further data set, the system named is RAR. Kind of data set: RAR transcriptional activation assay (RARE-luc MCF-7 cells). Format: cell-based. The following applies: 0.1 nM to 10 µM, 24 hours of treatment; Figure 5. An excerpt:
This retinoid transcriptional activity assay measures the ability of a test compound to induce expression of a RA-sensitive reporter construct. This assay utilizes MCF-7 cells stably transduced with a gene construct comprising 4 tandem RA-response elements linked to a promoter driving transcriptional expression of the firefly luciferase encoding mRNA (RARE-luc). This construct serves as a sensitive reporter of retinoid-like activity.
RARE-luc transduced MCF-7 cells were maintained in a RPMI-1640 medium containing 10% FBS. Cells were grown in 96-well plates, and treated with the test compound diluted in DMSO in duplicate at 0.1 nM, 1 nM, 10 nM, 100 nM, 1 µM and 10 µM final concentrations. As a positive control for reporter activation, cells were also treated with RA diluted in DMSO at the same concentrations. DMSO treatment alone served as a negative control. After 24 hours of treatment, cells were harvested lysis buffer (Molecular Devices, San Jose, USA) and luciferase activity in cell lysates were read using a luminometer.

A short description of data set [3]: Mapping a therapeutic window (ED50 versus MTD). Format: in vivo. From the text:
For both palovarotene and compound 1 efficacy and toxicity were correlated to the pharmacokinetic parameters AUC (area under the curve), Cmax (maximum concentration detected following compound administration), and duration above EC50/IC50.This illustrated that efficacy was best predicted by duration above the EC50/IC50 (effective concentration for 50% response (in the case of palovarotene), or for 50% inhibition (in the case of compound 1)), whereas toxicity was best predicted by Cmax. […] For palovarotene, efficacy data from Example 7 and toxicity data from Example 8 above were compiled with mined data from the following publications: • Lindborg et al (2018). "Cartilage-derived retinoic acid-sensitive protein (CD-RAP): A stage-specific biomarker of heterotopic endochondral ossification (HEO) in fibrodysplasia ossificans progressiva (FOP)." Bone 109: 153-157. • Chakkalakal, S. A., et al. (2016). "Palovarotene Inhibits Heterotopic Ossification and Maintains Limb Mobility and Growth in Mice With the Human ACVR1(R206H) Fibrodysplasia Ossificans Progressiva (FOP) Mutation." J Bone Miner Res 31(9): 1666-1675. • Inubushi, T., et al. (2018). "Palovarotene Inhibits Osteochondroma Formation in a Mouse Model of Multiple Hereditary Exostoses." J Bone Miner Res 33(4): 658-666. • Lees-Shepard, J. B., et al. (2018). […] "Potent inhibition of heterotopic ossification by nuclear retinoic acid receptor-gamma agonists." Nat Med 17(4): 454-460.

One may read the IC50 as the concentration that gives 50% inhibition. A word on the ED50: it is the midpoint of the dose-response relation. Low values mean an effect at a small dose, high ones a need for a large dose. As for `CC(C)(C)c1cccc(-c2cc3cc(/C=C/C(=O)O)ccc3[nH]2)c1` [Compound 1, (E)-3-(2-(3-(tert-butyl)phenyl)-1H-indol-5-yl)acrylic acid], the half-maximal inhibitory concentration (IC50) worked out at 12.7 nM at CYP26B1 [1] and 1.9 nM at CYP26B1 [2]. For the same compound, the luciferase activity result in the data set on RAR is on record as “did not induce luciferase activity significantly”. Moreover, in data set [3] (Mus musculus, BID, effective dose for 50% reduction in ectopic bone), the 50% effect level (ED50) was put at a dose of 4 mg/kg. Besides, the MTD at 4 weeks in data set [3] (both sexes, FVB, mouse, in vivo) amounted to 10 mg/kg.
